Test results taken from publication PMC9033836, “Determination of key residues in MRGPRX2 to enhance pseudo-allergic reactions induced by fluoroquinolones” (Scientific Reports, 2022).
Changes are numbered by the printed parent chain.

Tests used:
Assay in all cases: intracellular calcium mobilisation (FLIPR Tetra), transiently transfected HEK293
Format in all cases: cell-based
dog MRGPRX2 [1] = target: T1, dog MRGPRX2 (Canis lupus, UniProt A0A4Y5P885); conditions: read-out: EC50 (μg/mL) ± SD (P value) / Dog / Wild type (converted)
T1 construct: gene in pcDNA3.1(+), transiently transfected HEK293 cells (JCRB)
T1 sequence (A0A4Y5P885 1-417): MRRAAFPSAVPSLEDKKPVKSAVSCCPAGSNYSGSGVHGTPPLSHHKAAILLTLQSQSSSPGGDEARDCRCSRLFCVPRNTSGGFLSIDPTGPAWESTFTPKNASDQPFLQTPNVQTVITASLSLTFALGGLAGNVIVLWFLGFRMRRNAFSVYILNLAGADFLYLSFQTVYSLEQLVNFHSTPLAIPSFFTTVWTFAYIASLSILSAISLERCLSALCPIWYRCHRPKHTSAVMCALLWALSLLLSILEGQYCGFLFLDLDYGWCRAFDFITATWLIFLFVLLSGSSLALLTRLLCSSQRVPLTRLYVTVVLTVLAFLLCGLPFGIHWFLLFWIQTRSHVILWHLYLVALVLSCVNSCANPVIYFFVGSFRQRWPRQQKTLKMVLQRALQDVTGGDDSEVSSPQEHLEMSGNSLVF
From the text: intracellular calcium mobilisation (FLIPR Tetra), transiently transfected HEK293 on dog MRGPRX2

human MRGPRX2 [2] = target: T2, human MRGPRX2 (Homo sapiens, UniProt Q96LB1, M109W); conditions: read-out: EC50 (μg/mL) ± SD (P value) / Human / M109W (converted)
T2 construct: full-length gene in pcDNA3.1(+), transiently transfected HEK293 cells (JCRB)
T2 sequence (Q96LB1 1-330 M109W): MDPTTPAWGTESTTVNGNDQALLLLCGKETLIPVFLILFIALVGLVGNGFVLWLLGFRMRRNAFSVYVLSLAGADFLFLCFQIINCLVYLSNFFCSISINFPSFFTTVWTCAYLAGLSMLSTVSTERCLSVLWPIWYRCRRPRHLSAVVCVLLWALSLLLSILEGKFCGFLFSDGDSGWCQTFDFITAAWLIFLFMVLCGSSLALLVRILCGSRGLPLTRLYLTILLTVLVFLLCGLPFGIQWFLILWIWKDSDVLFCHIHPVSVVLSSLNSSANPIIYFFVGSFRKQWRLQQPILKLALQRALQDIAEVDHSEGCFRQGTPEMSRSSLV
From the text: (§1) intracellular calcium mobilisation (FLIPR Tetra), transiently transfected HEK293 on human MRGPRX2

human MRGPRX2 [3] = target: T3, human MRGPRX2 (Homo sapiens, UniProt Q96LB1, F78Y); conditions: read-out: EC50 (μg/mL) ± SD (P value) / Human / F78Y (converted)
T3 construct: full-length gene in pcDNA3.1(+), transiently transfected HEK293 cells (JCRB)
T3 sequence (Q96LB1 1-330 F78Y): T2 sequence (Q96LB1 1-330 M109W) with F78Y, W109M
From the text: as §1

human MRGPRX2 [4] = target: T4, human MRGPRX2 (Homo sapiens, UniProt Q96LB1); conditions: read-out: EC50 (μg/mL) ± SD (P value) / Human / Wild type (converted)
T4 construct: full-length gene in pcDNA3.1(+), transiently transfected HEK293 cells (JCRB)
T4 sequence (Q96LB1 1-330): T2 sequence (Q96LB1 1-330 M109W) with W109M
From the text: as §1

human MRGPRX2 [5] = target: T5, human MRGPRX2 (Homo sapiens, UniProt Q96LB1, F78Y/M109W); conditions: read-out: EC50 (μg/mL) ± SD (P value) / Human / F78Y/M109W (converted)
T5 construct: full-length gene in pcDNA3.1(+), transiently transfected HEK293 cells (JCRB)
T5 sequence (Q96LB1 1-330 F78Y/M109W): T2 sequence (Q96LB1 1-330 M109W) with F78Y
From the text: as §1

human MRGPRX2 [6] = target: T4, human MRGPRX2; conditions: highest concentration of fluoroquinolones 1000 µg/mL; HBSS pH 7.4, 20 mM HEPES, 0.05% BSA
dog MRGPRX2 [7] = target: T1, dog MRGPRX2; conditions: highest concentration of fluoroquinolones 1000 µg/mL; HBSS pH 7.4, 20 mM HEPES, 0.05% BSA

| SMILES | EC50 (dog MRGPRX2 [1]) | EC50 (human MRGPRX2 [2]) | EC50 (human MRGPRX2 [3]) | EC50 (human MRGPRX2 [4]) | EC50 (human MRGPRX2 [5]) | intracellular calcium mobilisation (FLIPR Tetra), transiently transfected HEK293 (human MRGPRX2 [6]) | intracellular calcium mobilisation (FLIPR Tetra), transiently transfected HEK293 (dog MRGPRX2 [7]) |
| --- | --- | --- | --- | --- | --- | --- | --- |
| O=C(O)c1cn(C2CC2)c2cc(N3CCNCC3)c(F)cc2c1=O [CPFX] | 36.2 µM | – | – | – | – | – | – |
| C[C@H]1COc2c(N3CCN(C)CC3)c(F)cc3c(=O)c(C(=O)O)cn1c23 [LVFX] | 249 µM | 581 µM | 1380 µM | 1800 µM | 498 µM | – | – |
| C[C@H]1COc2c(C3(N)CC3)c(F)cc3c(=O)c(C(=O)O)cn1c23 [PZFX] | – | – | – | – | – | PZFX ... did not induce intracellular calcium mobilisation in any of the cells | PZFX ... did not induce intracellular calcium mobilisation in any of the cells |
| COc1c(N2CCNC(C)C2)c(F)cc2c(=O)c(C(=O)O)cn(C3CC3)c12 (stereo not shown) [GFLX] | 258 µM | 266 µM | 666 µM | 959 µM | 197 µM | – | – |
